Consider five cell lines from the supplement of paper PMC10307832.

Common to all, as to assay: relative viability (nuclei count vs DMSO), 5 days (fraction); higher = more cells survive
Compound in the test “Kobe2602 + AZD7762”: C1=CC(=CC=C1NC(=S)NNC2=C(C=C(C=C2[N+](=O)[O-])C(F)(F)F)[N+](=O)[O-])F [Kobe2602] + NC(=O)Nc1cc(-c2cccc(F)c2)sc1C(=O)N[C@H]1CCCNC1 [AZD7762] (partner 0.2 µM)
In outline: (§1)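 Values are medians from duplicate plates. Each reflects relative viability, defined as the nuclei count of treated wells over that of vehicle wells. Lung cancer cell lines in 1536-well plates were pin-tool dosed one day after seeding with one drug alone or with a fixed anchor-drug dose plus five library-drug doses (not always all listed) in √10 steps, then fixed, stained and imaged at 4× after 5 days.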

Compound in the test “Kobe2602 + Vorinostat”: C1=CC(=CC=C1NC(=S)NNC2=C(C=C(C=C2[N+](=O)[O-])C(F)(F)F)[N+](=O)[O-])F [Kobe2602] + O=C(CCCCCCC(=O)Nc1ccccc1)NO [Vorinostat] (partner 1 µM)
Summed up:
as §1

Compound in test [1]: COc1cc2nccc(Oc3ccc(NC(=O)C4(C(=O)Nc5ccc(F)cc5)CC4)cc3)c2cc1OC [Cabozantinib] + CC(C)C[C@H](NC(=O)[C@H](Cc1ccccc1)NC(=O)c1cnccn1)B(O)O [Bortezomib] (partner 0.002 µM)
In outline: as §1

Compound in the test “Cabozantinib + Alpelisib”: COc1cc2nccc(Oc3ccc(NC(=O)C4(C(=O)Nc5ccc(F)cc5)CC4)cc3)c2cc1OC [Cabozantinib] + Cc1nc(NC(=O)N2CCC[C@H]2C(N)=O)sc1-c1ccnc(C(C)(C)C(F)(F)F)c1 [Alpelisib] (partner 2 µM)
Summed up:
as §1

NCI-H2405: the relative viability was determined as 0.767 in the test with Kobe2602 + AZD7762 (first compound 0.2 µM); 0.912 with Kobe2602 + AZD7762 (first compound 0.6325 µM); 0.664 with Kobe2602 + AZD7762 (first compound 2 µM); 0.798 with Kobe2602 + AZD7762 (first compound 6.325 µM); 0.857 in the test with Kobe2602 + AZD7762 (first compound 20 µM); 1.05 with Kobe2602 + Vorinostat (first compound 0.2 µM). In addition, the relative viability in the test with Kobe2602 + Vorinostat (first compound 0.6325 µM) amounted to 1.34; in the test with Kobe2602 + Vorinostat (first compound 2 µM) it was 0.998; with Kobe2602 + Vorinostat (first compound 6.325 µM) it was 1.04; with Kobe2602 + Vorinostat (first compound 20 µM), 1.02; in test [1] (first compound 0.02 µM) it was 0.947; in test [1] (first compound 0.06325 µM) it was 1.06. The relative viability in test [1] (first compound 0.2 µM) stood at 0.989; in test [1] (first compound 0.6325 µM), 0.871; in test [1] (first compound 2 µM), 1.04; in the test with Cabozantinib + Alpelisib (first compound 0.06325 µM) it was 0.858; with Cabozantinib + Alpelisib (first compound 0.2 µM), 0.838; with Cabozantinib + Alpelisib (first compound 0.6325 µM), 0.744. Also, the relative viability in the test with Cabozantinib + Alpelisib (first compound 2 µM) was 0.67.

With NCI-H3122, the relative viability came to 0.984 with Kobe2602 + AZD7762 (first compound 0.2 µM); 0.963 in the test with Kobe2602 + AZD7762 (first compound 0.6325 µM); 0.935 with Kobe2602 + AZD7762 (first compound 2 µM); 1.09 with Kobe2602 + AZD7762 (first compound 6.325 µM); 1.04 with Kobe2602 + AZD7762 (first compound 20 µM); 0.986 with Kobe2602 + Vorinostat (first compound 0.2 µM). Further, the relative viability in the test with Kobe2602 + Vorinostat (first compound 0.6325 µM) amounted to 0.701; with Kobe2602 + Vorinostat (first compound 2 µM), 0.979; with Kobe2602 + Vorinostat (first compound 6.325 µM) it was 0.855; with Kobe2602 + Vorinostat (first compound 20 µM), 1.06; in test [1] (first compound 0.02 µM), 1; in test [1] (first compound 0.06325 µM), 1.01. Moreover, the relative viability in test [1] (first compound 0.2 µM) was found to be 0.978; in test [1] (first compound 0.6325 µM) it was 0.924; in test [1] (first compound 2 µM), 0.964; with Cabozantinib + Alpelisib (first compound 0.02 µM), 0.875; with Cabozantinib + Alpelisib (first compound 0.06325 µM), 0.778; in the test with Cabozantinib + Alpelisib (first compound 0.2 µM), 0.731. The relative viability with Cabozantinib + Alpelisib (first compound 0.6325 µM) was 0.97; in the test with Cabozantinib + Alpelisib (first compound 2 µM) it was 0.956.

With PC-3 [JPC-3], the relative viability amounted to 0.872 in the test with Kobe2602 + AZD7762 (first compound 0.2 µM); 0.913 with Kobe2602 + AZD7762 (first compound 0.6325 µM); 0.603 with Kobe2602 + AZD7762 (first compound 2 µM); 0.823 with Kobe2602 + AZD7762 (first compound 6.325 µM); 0.835 with Kobe2602 + AZD7762 (first compound 20 µM); 0.943 with Kobe2602 + Vorinostat (first compound 0.2 µM). In addition, the relative viability was found to be 1.1 with Kobe2602 + Vorinostat (first compound 0.6325 µM); 0.787 in the test with Kobe2602 + Vorinostat (first compound 2 µM); 0.874 with Kobe2602 + Vorinostat (first compound 6.325 µM); 0.771 in the test with Kobe2602 + Vorinostat (first compound 20 µM); 0.802 in test [1] (first compound 0.02 µM); 0.992 in test [1] (first compound 0.06325 µM). The relative viability in test [1] (first compound 0.6325 µM) came to 0.863; in test [1] (first compound 2 µM), 0.867; in the test with Cabozantinib + Alpelisib (first compound 0.02 µM), 1.02; with Cabozantinib + Alpelisib (first compound 0.06325 µM) it was 1.16; with Cabozantinib + Alpelisib (first compound 0.6325 µM) it was 1.06; with Cabozantinib + Alpelisib (first compound 2 µM), 1.04.

PC-14: the relative viability with Kobe2602 + AZD7762 (first compound 0.2 µM) amounted to 0.39; in the test with Kobe2602 + AZD7762 (first compound 0.6325 µM), 0.445; with Kobe2602 + AZD7762 (first compound 2 µM), 0.348; with Kobe2602 + AZD7762 (first compound 6.325 µM), 0.351; in the test with Kobe2602 + AZD7762 (first compound 20 µM), 0.308; with Kobe2602 + Vorinostat (first compound 0.2 µM) it was 0.637. In addition, the relative viability is 0.788 in the test with Kobe2602 + Vorinostat (first compound 0.6325 µM); 0.739 in the test with Kobe2602 + Vorinostat (first compound 2 µM); 0.75 with Kobe2602 + Vorinostat (first compound 6.325 µM); 0.413 with Kobe2602 + Vorinostat (first compound 20 µM); 0.952 in test [1] (first compound 0.02 µM); 0.89 in test [1] (first compound 0.06325 µM). Moreover, the relative viability in test [1] (first compound 0.6325 µM) turned out to be 0.829; in test [1] (first compound 2 µM), 0.8; in the test with Cabozantinib + Alpelisib (first compound 0.02 µM), 1; in the test with Cabozantinib + Alpelisib (first compound 0.06325 µM) it was 1.03; in the test with Cabozantinib + Alpelisib (first compound 0.6325 µM), 0.901; with Cabozantinib + Alpelisib (first compound 2 µM) it was 0.868.

Consider RERF-LC-KJ, for which the relative viability stood at 0.883 with Kobe2602 + AZD7762 (first compound 0.2 µM); 0.973 with Kobe2602 + AZD7762 (first compound 0.6325 µM); 1.02 with Kobe2602 + AZD7762 (first compound 2 µM); 0.881 with Kobe2602 + AZD7762 (first compound 6.325 µM); 0.894 with Kobe2602 + AZD7762 (first compound 20 µM); 0.679 in the test with Kobe2602 + Vorinostat (first compound 0.2 µM). The relative viability with Kobe2602 + Vorinostat (first compound 0.6325 µM) was determined as 0.69; in the test with Kobe2602 + Vorinostat (first compound 2 µM) it was 0.671; in the test with Kobe2602 + Vorinostat (first compound 6.325 µM), 0.665; with Kobe2602 + Vorinostat (first compound 20 µM), 0.509; in test [1] (first compound 0.02 µM), 1.11; in test [1] (first compound 0.06325 µM), 1.04. Further, the relative viability in test [1] (first compound 0.2 µM) came out at 1.26; in test [1] (first compound 0.6325 µM), 1.05; in test [1] (first compound 2 µM), 1.06; with Cabozantinib + Alpelisib (first compound 0.02 µM), 0.864; with Cabozantinib + Alpelisib (first compound 0.06325 µM), 0.877; with Cabozantinib + Alpelisib (first compound 0.2 µM) it was 0.733. Besides, the relative viability is 0.847 with Cabozantinib + Alpelisib (first compound 0.6325 µM) and 0.675 in the test with Cabozantinib + Alpelisib (first compound 2 µM).
